From patent US4210754A, “Morpholino containing benzamides” (Hoffmann-La Roche Inc., priority 1978, dated 1980)

Legend:
[1] = toxicity (LD50) p.o. in mice; conditions: mouse, in vivo, po
Experimental: (§1) The MAO inhibiting activity of the compounds of formula I of the invention can be determined using standard methods. Thus, the compounds of formula I to be tested were administered p.o. to rats. One hour thereafter the animals were killed and the MAO inhibiting activity in the liver homogenates was measured according to the method described in Biochem. Pharmacol. 12 (1963) 1439-1441. The activity thus determined of representative compounds of the present invention and their toxicity can be seen from the ED50 values (μmol/kg.p.o. in rats) and LD50 values (mg/kg, p.o. in mice) listed in the Table which follows: […]

monoamine oxidase (MAO) = assay: MAO inhibiting activity in liver homogenates of rats after p.o. administration; format: in vivo; conditions: animals killed one hour after administration, MAO measured in liver homogenates, 60 min
Experimental: as §1

[2] = toxicity (LD50) p.o. in rats; conditions: rat, in vivo, po, after 10 days

## O=C(NCCN1CCOCC1)c1ccc(Cl)cc1Cl [2,4-dichloro-N-(2-morpholinoethyl)-benzamide]
[1]
  LD50: 1250 to 2500 mg/kg
Monoamine oxidase (MAO)
  ED50 (MAO inhibiting activity): 13 µmol/kg

## O=C(NCCN1CCOCC1)c1ccc(Cl)cc1[N+](=O)[O-] [4-chloro-N-(2-morpholinoethyl)-2-nitrobenzamide]
Monoamine oxidase (MAO)
  ED50 (MAO inhibiting activity): 2 µmol/kg

## O=C(NCCN1CCOCC1)c1ccc(Br)cc1 [p-bromo-N-(2-morpholinoethyl)-benzamide]
[1]
  LD50: 1250 to 2500 mg/kg
Monoamine oxidase (MAO)
  ED50 (MAO inhibiting activity): 6 µmol/kg

## O=C(NCCN1CCOCC1)c1ccc(Cl)cc1 [p-chloro-N-(2-morpholinoethyl)-benzamide]
Monoamine oxidase (MAO)
  ED50 (MAO inhibiting activity): 5 µmol/kg
[2]
  LD50 at 240 h: 707 ± 55 mg/kg

## O=C(NCCN1CCOCC1)c1ccc(F)cc1 [p-fluoro-N-(2-morpholinoethyl)-benzamide]
[1]
  LD50: 1250 to 2500 mg/kg
Monoamine oxidase (MAO)
  ED50 (MAO inhibiting activity): 11 µmol/kg

## O=C(NCCN1CCOCC1)c1ccc(I)cc1 [p-iodo-N-(2-morpholinoethyl)-benzamide]
[1]
  LD50: 1250 to 2500 mg/kg
Monoamine oxidase (MAO)
  ED50 (MAO inhibiting activity): 4 µmol/kg

## CC(C)(C)c1ccc(C(=O)NCCN2CCOCC2)cc1 [p-t-butyl-N-(2-morpholinoethyl)-benzamide]
[1]
  LD50: 1250 to 2500 mg/kg
Monoamine oxidase (MAO)
  ED50 (MAO inhibiting activity): 16 µmol/kg

## O=C(NCCN1CCOCC1)c1ccc(C(F)(F)F)cc1 [α,α,α-trifluoro-N-(2-morpholinoethyl)-p-toluamide]
[1]
  LD50: 1000 to 2000 mg/kg
Monoamine oxidase (MAO)
  ED50 (MAO inhibiting activity): 16 µmol/kg
